Test results from publication PMC10222839, “Development of Novel Small-Molecule Activators of Pyruvate Kinase Muscle Isozyme 2, PKM2, to Reduce Photoreceptor Apoptosis” (Pharmaceuticals, 2023).
Values after ≈ are worked out from the molar mass of the structure shown.

What was measured:
human recombinant PKM2 = biological target: T1, human recombinant PKM2 (Homo sapiens, UniProt P14618); experiment: Pyruvate kinase enzyme-coupled (LDH/NADH) assay with recombinant PKM2; assay type: biochemical; conditions: for AC50: recombinant human PKM2, n = 3, best-fit value ± std. error; for Emax: recombinant human PKM2, n = 3, normalized to DMSO-treated enzyme, read-out: Recombinant PKM2 Max Activation
T1 construct: purchased Sigma SAE0021
Protocol: (§1) Recombinant Enzyme. An enzyme-coupled assay that measures the depletion of NADH via absorbance at 340 nm and uses lactate dehydrogenase (LDH) was employed to determine the activity of pyruvate kinase (PK). To determine the AC50 (concentration of activator necessary to achieve half-maximal activation) of the different small molecules with PKM2, assays were conducted in a 96-well format using 200 μL/well assay volume with 10 nM human recombinant PKM2 (Sigma, St. Louis, MO, USA, Cat No. SAE0021) or PKM1 (Sigma, […], Cat No. SRP0415), differing concentrations of activator, 0.5 mM PEP, 1 mM ADP, 0.2 mM NADH, and 8 U of LDH in a buffer of 50 mM Tris-HCl (pH 7.4), 100 mM KCl, and 5 mM MgCl2 as previously described. A SPECTROstar Omega plate reader (BMG LABTECH Inc., Cary, NC, USA) monitored absorbance at 340 nm. The MARS software suite was utilized to determine initial velocities. Data were normalized to DMSO (dimethyl sulfoxide)-treated enzyme activity, as previously described.

[1] = biological target: T2, pyruvate kinase (PK) activity in 661W cells (Mus musculus, UniProt P52480); experiment: PK activity in 661W cell lysates after 2 h incubation with activator; assay type: cell-based; conditions: for AC50: n = 3; for Emax: n = 3, read-out: 661W Cells Max Activation
T2 construct: endogenous in cells; host or cells: 661W photoreceptor-like cells
Protocol: The potency and efficacy of each compound, 1 through 5, was assessed with recombinant human PKM2 using an enzyme-coupled assay that uses lactate dehydrogenase and measures the reduction in NADH via absorbance at 340 nm. […] To assess the ability of this pyridazinoindolone series of compounds to cross cellular membranes and increase PK activity, we utilized 661W cells, which are immortalized photoreceptor-like cells that express cone markers.
Cell culture. Next, 661W cells were incubated with either DMSO or different concentrations of small-molecule PKM2 activator for 2 h, lysed and homogenized in RIPA Lysis and Extraction Buffer (Thermo Fisher, Waltham, MA, USA, Cat No. 89900) with protease inhibitors (Complete-Mini, Roche Diagnostics, Indianapolis, IN, USA), and centrifuged at 10,000 rpm for 10 min to remove cellular debris. The supernatant (4–8 μL) was then used to assess the pyruvate kinase activity as described above. The total protein content was determined using the Pierce BCA protein assay kit (Thermo Fisher, Waltham, MA, USA, Cat No. 23225) with the Pierce™ Bovine Serum Albumin Standard Pre-Diluted Set (Thermo Fisher, Waltham, MA, USA, Cat No. 23208) and used to normalize activity as described previously.

[2] = Aqueous solubility (Eurofins Panlabs, HPLC-UV/Vis); assay type: physicochemical; conditions: aqueous buffer, kinetic from dmso stock; PBS, pH 7.4, 24 h, room temperature (Table 1)
Protocol: (§2) In brief, each compound was tested at a concentration of 200 μM in PBS, pH 7.4, and room temperature. […] The area of the principal peak in a calibration standard for each compound (200 μM) in organic solvent (60/40 v/v% methanol: water) was compared to the area of the corresponding peak in the PBS sample [42]. Compounds 16–21 underwent solubility testing at Analiza (Cleveland, OH, USA), a contract research organization. Five hundred microliters of PBS, pH 7.4 was added to each amount of compound provided. The samples were vortexed briefly and then placed on a rotary shaker at 200 RPM for 24 h at ambient temperature. Thereafter, the samples were vacuum filtered through a 0.45-micron membrane, and the filtrates were injected into a nitrogen detector for quantification. The nitrogen detector was calibrated using standards, and the filtrates were quantitated based on the calibration curve.

[3] = biological target: T3, pyruvate kinase (PK) activity in rat retina (Rattus norvegicus, UniProt P11980); experiment: PK activity in rat retina after intravitreal injection; assay type: in vivo; conditions: intravitreal injection in rats
T3 construct: the retina from each rat eye was dissected from the RPE-choroid, homogenized, and lysed; from tissue; host or cells: retina of adult Brown-Norway rats
Protocol: The intravitreal injection of medications has revolutionized how numerous retinal diseases are treated and are ever-increasing in ophthalmic clinical practice. Therefore, to assess the ability of these small molecules to activate PK in vivo in the rat retina, we utilized this well-accepted drug delivery method. Two microliters of each respective compound at 850 μM or DMSO were intravitreally injected into rat eyes. The vitreous volume of the rat eye was assumed to be 15 μL, giving a final intravitreal concentration of approximately 100 μM for each compound after injection. Retinas were harvested four hours after injection, lysed, and assayed for PK activity as previously described. The eyes treated with DMSO served as the control upon which PK activation was based.
(§3) Two microliters of each respective compound at 8.5 μM (final vitreous concentration of 1 μM) or DMSO was intravitreally injected into rat eyes, and the PK activity was assessed four hours later.
Animals. Intravitreal injections of various small-molecule PKM2 activators or vehicle (DMSO) were performed in Brown-Norway adult rats. The rats were anesthetized with ketamine (90 mg/mL) and xylazine (10 mg/mL) and their pupils dilated with topical phenylephrine (2.5%) and tropicamide (1%) as described previously. A sclerotomy was created with a 25-gauge microvitreoretinal blade (Walcott Rx Products, Ocean View, NJ, USA) just posterior to the limbus. A blunt 35-gauge cannula was inserted through this sclerotomy into the vitreous cavity to deliver 2 μL of different concentrations of small-molecule activator or DMSO. This injection volume produces minimal reflux with adequate reproducibility. Fifteen microliters of vitreous volume was assumed in rats to calculate the intravitreal concentrations of the compound after injection. As we have previously described, left eyes were treated with small-molecular activator, while right eyes were treated with DMSO, which served as the control upon which pyruvate kinase activation was based. Four hours later, the retina from each rat eye was dissected from the RPE-choroid, homogenized, and lysed in RIPA Lysis and Extraction Buffer with protease inhibitors. The pyruvate kinase (PK) activity assay, as described above, was performed using 4 to 8 microliters of rat retinal lysate, similar to what we and others have previously described. Analogous to the cell culture assays, the total protein of the lysate was used to normalize pyruvate kinase activity.

[4] = Aqueous solubility (Analiza, nitrogen detector); assay type: physicochemical; conditions: aqueous buffer, thermodynamic from solid; PBS, pH 7.4, 24 h, ambient temperature (Table 3)
Protocol: as §2

recombinant PKM1 = biological target: T4, recombinant PKM1 (Homo sapiens, UniProt P14618); experiment: Pyruvate kinase enzyme-coupled assay with recombinant PKM1; assay type: biochemical; conditions: increasing concentrations (Figure 6b)
T4 construct: purchased Sigma SRP0415
Protocol: as §3, §1

[5] = final vitreous concentration 1 μM, 4 h (Figure 6a)

T2 sequence (P52480 whole entry): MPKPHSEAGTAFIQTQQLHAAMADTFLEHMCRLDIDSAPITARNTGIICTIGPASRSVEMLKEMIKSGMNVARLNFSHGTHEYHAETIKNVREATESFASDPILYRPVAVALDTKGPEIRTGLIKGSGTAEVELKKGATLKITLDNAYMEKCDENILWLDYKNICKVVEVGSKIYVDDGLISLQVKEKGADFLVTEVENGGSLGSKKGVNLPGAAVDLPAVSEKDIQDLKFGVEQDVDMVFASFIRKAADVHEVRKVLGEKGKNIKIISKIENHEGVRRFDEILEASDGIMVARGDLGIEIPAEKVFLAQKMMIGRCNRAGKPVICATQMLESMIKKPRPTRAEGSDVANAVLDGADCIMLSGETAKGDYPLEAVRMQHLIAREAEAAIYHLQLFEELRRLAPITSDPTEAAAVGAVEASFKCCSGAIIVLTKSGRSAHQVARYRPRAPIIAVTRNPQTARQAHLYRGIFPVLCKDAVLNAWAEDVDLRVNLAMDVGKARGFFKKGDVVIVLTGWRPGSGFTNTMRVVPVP
T1 sequence (P14618 whole entry): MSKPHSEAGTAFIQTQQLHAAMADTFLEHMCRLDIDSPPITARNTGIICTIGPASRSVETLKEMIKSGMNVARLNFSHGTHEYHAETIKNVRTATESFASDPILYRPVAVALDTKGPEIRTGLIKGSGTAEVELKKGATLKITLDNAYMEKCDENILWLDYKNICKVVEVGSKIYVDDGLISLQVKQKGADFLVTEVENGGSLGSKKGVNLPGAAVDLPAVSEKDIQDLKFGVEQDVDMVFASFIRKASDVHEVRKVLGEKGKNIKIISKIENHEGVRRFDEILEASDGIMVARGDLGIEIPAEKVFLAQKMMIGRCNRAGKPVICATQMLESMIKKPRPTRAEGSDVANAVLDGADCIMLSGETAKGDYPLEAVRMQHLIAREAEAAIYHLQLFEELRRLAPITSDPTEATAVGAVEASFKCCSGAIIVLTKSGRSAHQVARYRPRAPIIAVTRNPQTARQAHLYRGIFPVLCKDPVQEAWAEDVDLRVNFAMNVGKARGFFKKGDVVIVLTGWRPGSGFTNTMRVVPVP
T3 sequence (P11980 1-531 isoform P11980-2): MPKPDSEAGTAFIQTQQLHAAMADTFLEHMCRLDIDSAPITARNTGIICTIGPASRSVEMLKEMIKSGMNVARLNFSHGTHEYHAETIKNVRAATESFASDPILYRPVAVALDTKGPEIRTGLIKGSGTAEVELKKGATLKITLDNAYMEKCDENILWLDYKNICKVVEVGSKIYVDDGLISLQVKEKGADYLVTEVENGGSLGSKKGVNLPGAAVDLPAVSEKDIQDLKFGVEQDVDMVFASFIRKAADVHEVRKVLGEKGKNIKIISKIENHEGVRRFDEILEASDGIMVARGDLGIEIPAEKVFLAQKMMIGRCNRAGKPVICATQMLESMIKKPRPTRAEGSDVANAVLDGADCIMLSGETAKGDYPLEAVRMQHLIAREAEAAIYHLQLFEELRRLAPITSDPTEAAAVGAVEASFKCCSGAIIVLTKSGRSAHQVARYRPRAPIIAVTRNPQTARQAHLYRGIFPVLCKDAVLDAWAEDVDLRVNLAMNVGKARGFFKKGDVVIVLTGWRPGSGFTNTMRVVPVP
T4 sequence (P14618 1-531 isoform P14618-2): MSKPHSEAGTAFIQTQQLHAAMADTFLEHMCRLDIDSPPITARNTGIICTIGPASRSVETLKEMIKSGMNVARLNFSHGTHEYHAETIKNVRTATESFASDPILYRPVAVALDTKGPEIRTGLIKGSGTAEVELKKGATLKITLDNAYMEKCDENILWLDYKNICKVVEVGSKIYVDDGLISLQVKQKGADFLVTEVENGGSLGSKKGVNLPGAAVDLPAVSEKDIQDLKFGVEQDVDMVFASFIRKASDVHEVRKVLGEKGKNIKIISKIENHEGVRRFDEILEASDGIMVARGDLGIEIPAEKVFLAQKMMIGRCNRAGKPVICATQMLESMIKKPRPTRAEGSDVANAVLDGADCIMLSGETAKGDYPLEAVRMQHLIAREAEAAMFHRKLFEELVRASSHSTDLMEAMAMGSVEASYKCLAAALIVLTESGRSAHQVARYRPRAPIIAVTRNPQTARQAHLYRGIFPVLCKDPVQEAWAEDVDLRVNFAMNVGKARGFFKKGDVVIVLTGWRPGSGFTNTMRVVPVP

Row | Compound | AC50 (human recombinant PKM2) [nM] | Emax (human recombinant PKM2) [%] | AC50 [1] [nM] | Emax [1] [%] | solubility at 24 h [2] [µM] | solubility at 24 h [4] [µM] | PK activity increase, less than that observed with ML-265 [3, 5] | activation of recombinant PKM1 (recombinant PKM1) | PK activation in rat retina compared with ML-265 [3, 5] | AC50 ([3]; increasing concentrations, retina 4 h, read-out: in vivo AC50) [nM] | Emax ([3]; rat, increasing concentrations, retina 4 h, normalized to DMSO, read-out: in vivo PK activity (maximum activation)) [%]
1 | CSc1ccc2c3cnn(Cc4cccc(N)c4)c(=O)c3n(C)c2c1 [Compound 4] | 48 ± 10 | 216 ± 12 | 66 ± 19 | 256 ± 13 | < 0.01 | – | – | – | – | – | –
2 | Cn1c2cc(CN3CCNCC3)c(F)cc2c2cnn(Cc3ccccc3F)c(=O)c21 [Compound 21] | 66 ± 10 | 339 ± 16 | 72 ± 24 | 299 ± 18 | – | 334 (≈ 141 µg/mL) | – | – | approximately a third of the retinal PK activation as that achieved with ML-265 | – | –
3 | Cn1c2cc([S+](C)[O-])ccc2c2cnn(Cc3ccccc3)c(=O)c21 (stereo not shown) [Compound 3] | 47 ± 10 | 279 ± 16 | 104 ± 32 | 280 ± 17 | 12.1 (≈ 4.25 µg/mL) | – | – | – | – | – | –
4 | Cc1ccc2c3cnn(Cc4cccc(N)c4)c(=O)c3n(C)c2c1 [Compound 5] | 61 ± 12 | 249 ± 14 | 132 ± 47 | 236 ± 16 | 12.7 (≈ 4.04 µg/mL) | – | – | – | – | – | –
5 | Cc1ccc2c3cnn(Cc4ccccc4)c(=O)c3n(C)c2c1 [Compound 1] | 23 ± 4 | 224 ± 9 | 175 ± 64 | 219 ± 16 | < 0.01 | – | – | – | – | – | –
6 | Cc1cccc(Cn2ncc3c4cc(F)c(CN5CCOCC5)cc4n(C)c3c2=O)n1 [Compound 16] | 65 ± 8 | 224 ± 8 | 162 ± 46 | 268 ± 15 | – | 397 (≈ 167 µg/mL) | – | – | – | – | –
7 | Cn1c2cc([S+](C)[O-])sc2c2cnn(Cc3cccc(N)c3)c(=O)c21 (stereo not shown) [ML-265, reference compound] | – | 292 ± 21 | 108 ± 32 | 370 ± 21 | – | – | – | – | – | 866 ± 176 | 202 ± 8

Continued, in another order:

Row | AC50 (human recombinant PKM2) [nM] | Emax (human recombinant PKM2) [%] | AC50 [1] [nM] | Emax [1] [%] | solubility at 24 h [2] [µM] | solubility at 24 h [4] [µM] | PK activity increase, less than that observed with ML-265 [3, 5] | activation of recombinant PKM1 (recombinant PKM1) | Compound | PK activation in rat retina compared with ML-265 [3, 5] | AC50 ([3]; increasing concentrations, retina 4 h, read-out: in vivo AC50) [nM] | Emax ([3]; rat, increasing concentrations, retina 4 h, normalized to DMSO, read-out: in vivo PK activity (maximum activation)) [%]
8 | 64 ± 4 | 245 ± 5 | 106 ± 27 | 257 ± 12 | – | 858 (≈ 348 µg/mL) | 20–30% | – | Cc1cccc(Cn2ncc3c4cc(F)c(CN5CCCC5)cc4n(C)c3c2=O)n1 [Compound 18] | – | – | –
9 | 58 ± 5 | 213 ± 6 | 1620 ± 428 | 430 ± 33 | – | 1120 (≈ 442 µg/mL) | – | – | Cc1cccc(Cn2ncc3c4cc(F)c(CNCCO)cc4n(C)c3c2=O)n1 [Compound 17] | – | – | –
10 | 62 ± 11 | 239 ± 12 | 93 ± 29 | 288 ± 17 | – | 462 (≈ 184 µg/mL) | – | – | Cn1c2cc(CNCCO)c(F)cc2c2cnn(Cc3ccccc3F)c(=O)c21 [Compound 20] | – | – | –
11 | 83 ± 9 | 266 ± 9 | 222 ± 81 | 297 ± 22 | – | – | 20–30% | did not activate | Cc1cccc(Cn2ncc3c4cc(F)c(CN(C)C)cc4n(C)c3c2=O)n1 [Compound 19] | – | – | –
